Source: EP0908457B1, “3-(1,2-benzisothiazol- and isoxazol-5-Y1)-2,4(1H,3H)-pyrimidinedione or thione and 3-(1,2-benzisothiazol- and isoxazol-5-y1)-4(3H)-pyrimidinone or thione herbicidal agents” (BASF AKTIENGESELLSCHAFT, priority 1997, dated 1999)

What was measured:
[1] = test system: Oryza sativa, (L.) Tebonnet; assay: Rice tolerance to post-transplant applications under flooded paddy conditions (Example 187), ORYSAT (Rice, Tebonnet); details: for ORYSAT: herbicidal effect rating 0-9, three to four weeks after treatment; for herbicidal effect rating, ORYSAT (rice tolerance) / ORYSAT herbicidal effect rating: rated three to four weeks after treatment
[2] = test system: Echinochloa oryzoides (Ard.) Fritsch.; assay: Preemergence weed control under flooded paddy conditions, ECHORC (Watergrass (Calif.)); type: in vivo; details: flooded paddy; for ECHORC / herbicidal effect rating, ECHORC: preemergence weeds; for ECHORC: herbicidal effect rating 0-9, three to four weeks after treatment; for herbicidal effect rating, ECHORC / ECHORC herbicidal effect rating: rated three to four weeks after treatment; for ECHORC herbicidal effect rating: preemergence; on herbicidal effect rating, ECHORC: meaning of each grade not given here
[3] = test system: Cyperus serotinus, Rottb.; assay: Preemergence weed control under flooded paddy conditions, CYPSE (Flatsedge); type: in vivo; details: for CYPSE / herbicidal effect rating, CYPSE: preemergence weeds; for CYPSE: herbicidal effect rating 0-9, three to four weeks after treatment; for herbicidal effect rating, CYPSE / CYPSE herbicidal effect rating: rated three to four weeks after treatment; for CYPSE herbicidal effect rating: preemergence; on herbicidal effect rating, CYPSE: meaning of each grade not given here
[4] = test system: Monochoria vaginalis, Presl.; assay: Preemergence weed control under flooded paddy conditions, MOOVA (Monochoria); type: in vivo; details: flooded paddy; for MOOVA / herbicidal effect rating, MOOVA: preemergence weeds; for MOOVA: herbicidal effect rating 0-9, three to four weeks after treatment; for herbicidal effect rating, MOOVA / MOOVA herbicidal effect rating: rated three to four weeks after treatment; for MOOVA herbicidal effect rating: preemergence; on herbicidal effect rating, MOOVA: meaning of each grade not given here
[5] = test system: Sagittaria pygmaea, L.; assay: Preemergence weed control under flooded paddy conditions, SAGPY (Arrowhead (Pygmaea)); type: in vivo; details: flooded paddy; for SAGPY / herbicidal effect rating, SAGPY: preemergence weeds; for SAGPY: herbicidal effect rating 0-9, three to four weeks after treatment; for herbicidal effect rating, SAGPY / SAGPY herbicidal effect rating: rated three to four weeks after treatment; for SAGPY herbicidal effect rating: preemergence; on herbicidal effect rating, SAGPY: meaning of each grade not given here
[6] = test system: Cyperus iria; assay: Preemergence weed control under flooded paddy conditions, CYPIR (Rice Flatsedge); type: in vivo; details: flooded paddy; for CYPIR / herbicidal effect rating, CYPIR: preemergence weeds; for CYPIR: herbicidal effect rating 0-9, three to four weeks after treatment; for herbicidal effect rating, CYPIR / CYPIR herbicidal effect rating: rated three to four weeks after treatment; for CYPIR herbicidal effect rating: preemergence; on herbicidal effect rating, CYPIR: meaning of each grade not given here

SMILES: CCOCOCc1nsc2ccc(-n3c(=O)cc(C(F)(F)F)n(C)c3=O)cc12 [Example 455, 2,4(1H,3H)-Pyrimidinedione, 3-(3-[(ethoxymethoxy)methyl]-1,2-benzisothiazol-5-yl}-1-methyl-6-(trifluoromethyl)-]
- ORYSAT ([1]; 0.0320 kg/ha): 6.0
- ORYSAT ([1]; 0.0620 kg/ha): 8.0
- ORYSAT ([1]; 0.1250 kg/ha): 9.0
- ORYSAT ([1]; 0.2500 kg/ha): 9.0
- ECHORC ([2]; 0.0320 kg/ha): 9.0
- ECHORC ([2]; 0.0620 kg/ha): 9.0
- ECHORC ([2]; 0.1250 kg/ha): 9.0
- ECHORC ([2]; 0.2500 kg/ha): 9.0
- CYPSE ([3]; 0.0320 kg/ha): 2.0
- CYPSE ([3]; 0.0620 kg/ha): 6.0
- CYPSE ([3]; 0.1250 kg/ha): 8.0
- CYPSE ([3]; 0.2500 kg/ha): 9.0
- MOOVA ([4]; 0.0320 kg/ha): 6.0
- MOOVA ([4]; 0.0620 kg/ha): 7.0
- MOOVA ([4]; 0.1250 kg/ha): 9.0
- MOOVA ([4]; 0.2500 kg/ha): 9.0
- SAGPY ([5]; 0.0320 kg/ha): 4.0
- SAGPY ([5]; 0.0620 kg/ha): 6.0
- SAGPY ([5]; 0.1250 kg/ha): 7.0
- SAGPY ([5]; 0.2500 kg/ha): 9.0
- CYPIR ([6]; 0.0320 kg/ha): 6.0
- CYPIR ([6]; 0.0620 kg/ha): 7.0
- CYPIR ([6]; 0.1250 kg/ha): 9.0
- CYPIR ([6]; 0.2500 kg/ha): 9.0

SMILES: Cn1c(C(F)(F)F)cc(=O)n(-c2ccc3snc(COC(=O)c4ccccc4)c3c2)c1=O [Example 143, 3-[3-(Hydroxymethyl)-1,2-benzisothiazol-5-yl]-1-methyl-6-(trifluoromethyl)-2,4(1H,3H)-pyrimidinedione, benzoate (ester)]
- herbicidal effect rating, ORYSAT (rice tolerance) ([1]; 0.0313 kg/ha): 3.0
- herbicidal effect rating, ORYSAT (rice tolerance) ([1]; 0.0625 kg/ha): 3.0
- herbicidal effect rating, ORYSAT (rice tolerance) ([1]; 0.1250 kg/ha): 3.0
- herbicidal effect rating, ORYSAT (rice tolerance) ([1]; 0.2500 kg/ha): 4.0
- herbicidal effect rating, ECHORC ([2]; 0.0313 kg/ha): 0.0
- herbicidal effect rating, ECHORC ([2]; 0.0625 kg/ha): 0.0
- herbicidal effect rating, ECHORC ([2]; 0.1250 kg/ha): 2.0
- herbicidal effect rating, ECHORC ([2]; 0.2500 kg/ha): 6.0
- herbicidal effect rating, CYPSE ([3]; 0.0313 kg/ha): 0.0
- herbicidal effect rating, CYPSE ([3]; 0.0625 kg/ha): 0.0
- herbicidal effect rating, CYPSE ([3]; 0.1250 kg/ha): 0.0
- herbicidal effect rating, CYPSE ([3]; 0.2500 kg/ha): 0.0
- herbicidal effect rating, MOOVA ([4]; 0.0313 kg/ha): 9.0
- herbicidal effect rating, MOOVA ([4]; 0.0625 kg/ha): 9.0
- herbicidal effect rating, MOOVA ([4]; 0.1250 kg/ha): 9.0
- herbicidal effect rating, MOOVA ([4]; 0.2500 kg/ha): 9.0
- herbicidal effect rating, SAGPY ([5]; 0.0313 kg/ha): 0.0
- herbicidal effect rating, SAGPY ([5]; 0.0625 kg/ha): 0.0
- herbicidal effect rating, SAGPY ([5]; 0.1250 kg/ha): 0.0
- herbicidal effect rating, SAGPY ([5]; 0.2500 kg/ha): 0.0
- herbicidal effect rating, CYPIR ([6]; 0.0313 kg/ha): 0.0
- herbicidal effect rating, CYPIR ([6]; 0.0625 kg/ha): 0.0
- herbicidal effect rating, CYPIR ([6]; 0.1250 kg/ha): 0.0
- herbicidal effect rating, CYPIR ([6]; 0.2500 kg/ha): 0.0

SMILES: CC(C)OP(=O)(Cc1nsc2ccc(-n3c(=O)cc(C(F)(F)F)n(C)c3=O)cc12)OC(C)C [Example 263, 1,2-Benzisothiazole-3-methanephosphonic acid, 5-[3,6-dihydro-3-methyl-2,6-dioxo-4-(trifluoromethyl)-1(2H)-pyrimidinyl]-, diisopropyl ester]
- ORYSAT herbicidal effect rating ([1]; Rate 0.0320 kg/ha): 0.0
- ORYSAT herbicidal effect rating ([1]; Rate 0.0620 kg/ha): 0.0
- ORYSAT herbicidal effect rating ([1]; Rate 0.1250 kg/ha): 0.0
- ORYSAT herbicidal effect rating ([1]; Rate 0.2500 kg/ha): 4.0
- ECHORC herbicidal effect rating ([2]; Rate 0.0320 kg/ha): 0.0
- ECHORC herbicidal effect rating ([2]; Rate 0.0620 kg/ha): 0.0
- ECHORC herbicidal effect rating ([2]; Rate 0.1250 kg/ha): 0.0
- ECHORC herbicidal effect rating ([2]; Rate 0.2500 kg/ha): 2.0
- CYPSE herbicidal effect rating ([3]; Rate 0.0320 kg/ha): 9.0
- CYPSE herbicidal effect rating ([3]; Rate 0.0620 kg/ha): 9.0
- CYPSE herbicidal effect rating ([3]; Rate 0.1250 kg/ha): 9.0
- CYPSE herbicidal effect rating ([3]; Rate 0.2500 kg/ha): 9.0
- MOOVA herbicidal effect rating ([4]; Rate 0.0320 kg/ha): 0.0
- MOOVA herbicidal effect rating ([4]; Rate 0.0620 kg/ha): 0.0
- MOOVA herbicidal effect rating ([4]; Rate 0.1250 kg/ha): 6.0
- MOOVA herbicidal effect rating ([4]; Rate 0.2500 kg/ha): 9.0
- SAGPY herbicidal effect rating ([5]; Rate 0.0320 kg/ha): 0.0
- SAGPY herbicidal effect rating ([5]; Rate 0.0620 kg/ha): 0.0
- SAGPY herbicidal effect rating ([5]; Rate 0.1250 kg/ha): 0.0
- SAGPY herbicidal effect rating ([5]; Rate 0.2500 kg/ha): 0.0
- CYPIR herbicidal effect rating ([6]; Rate 0.0320 kg/ha): 4.0
- CYPIR herbicidal effect rating ([6]; Rate 0.0620 kg/ha): 7.0
- CYPIR herbicidal effect rating ([6]; Rate 0.1250 kg/ha): 9.0
- CYPIR herbicidal effect rating ([6]; Rate 0.2500 kg/ha): 9.0

SMILES: Cn1c(C(F)(F)F)cc(=O)n(-c2ccc3snc(CSCC(=O)O)c3c2)c1=O [Example 283, Acetic acid, {{{5-[3,6-dihydro-3-methyl-2,6-dioxo-4-(trifluoromethyl)-1(2H)-pyrimidinyl]-1,2-benzisothiazol-3-yl}methyl}thio}-]
- ORYSAT herbicidal effect rating ([1]; Rate 0.0320 kg/ha): 2.0
- ORYSAT herbicidal effect rating ([1]; Rate 0.0620 kg/ha): 2.0
- ORYSAT herbicidal effect rating ([1]; Rate 0.1250 kg/ha): 4.0
- ORYSAT herbicidal effect rating ([1]; Rate 0.2500 kg/ha): 5.0
- ORYSAT herbicidal effect rating ([1]; Rate 0.5000 kg/ha): 4.0
- ECHORC herbicidal effect rating ([2]; Rate 0.0320 kg/ha): 0.0
- ECHORC herbicidal effect rating ([2]; Rate 0.0620 kg/ha): 3.4
- ECHORC herbicidal effect rating ([2]; Rate 0.1250 kg/ha): 3.4
- ECHORC herbicidal effect rating ([2]; Rate 0.2500 kg/ha): 6.0
- ECHORC herbicidal effect rating ([2]; Rate 0.5000 kg/ha): 6.0
- CYPSE herbicidal effect rating ([3]; Rate 0.5000 kg/ha): 0.0
- MOOVA herbicidal effect rating ([4]; Rate 0.0320 kg/ha): 2.0
- MOOVA herbicidal effect rating ([4]; Rate 0.0620 kg/ha): 8.0
- MOOVA herbicidal effect rating ([4]; Rate 0.1250 kg/ha): 9.0
- MOOVA herbicidal effect rating ([4]; Rate 0.2500 kg/ha): 9.0
- MOOVA herbicidal effect rating ([4]; Rate 0.5000 kg/ha): 9.0
- SAGPY herbicidal effect rating ([5]; Rate 0.0320 kg/ha): 0.0
- SAGPY herbicidal effect rating ([5]; Rate 0.0620 kg/ha): 0.0
- SAGPY herbicidal effect rating ([5]; Rate 0.1250 kg/ha): 0.0
- SAGPY herbicidal effect rating ([5]; Rate 0.5000 kg/ha): 9.0
- CYPIR herbicidal effect rating ([6]; Rate 0.0320 kg/ha): 0.0
- CYPIR herbicidal effect rating ([6]; Rate 0.0620 kg/ha): 4.0
- CYPIR herbicidal effect rating ([6]; Rate 0.1250 kg/ha): 8.0
- CYPIR herbicidal effect rating ([6]; Rate 0.2500 kg/ha): 9.0
- CYPIR herbicidal effect rating ([6]; Rate 0.5000 kg/ha): 9.0
